Holding throughout (format): biochemical
For test [1], the target named is T1, CYP98A22 (Ruta graveolens, UniProt H9LJF9).
T1 construct: full-length, 508 residues, untagged; transient expression in Nicotiana benthamiana leaves with TBSV P19, leaf microsomes
Description: LC-MS of caffeoyl quinate formed by plant microsomes. Conditions: 0.2 mM NADPH; 20 mM phosphate pH 7.0; 28 °C; 30 min; microsomes from N. benthamiana expressing the enzyme. From the text: LC-MS of caffeoyl quinate formed by plant microsomes on CYP98A22

Test [2] addresses T2, CYP98A3 (Arabidopsis thaliana, UniProt O22203).
T2 construct: full-length, untagged; transient expression in Nicotiana benthamiana leaves with TBSV P19, leaf microsomes (also yeast WAT11 microsomes)
T2 sequence (O22203 1-508): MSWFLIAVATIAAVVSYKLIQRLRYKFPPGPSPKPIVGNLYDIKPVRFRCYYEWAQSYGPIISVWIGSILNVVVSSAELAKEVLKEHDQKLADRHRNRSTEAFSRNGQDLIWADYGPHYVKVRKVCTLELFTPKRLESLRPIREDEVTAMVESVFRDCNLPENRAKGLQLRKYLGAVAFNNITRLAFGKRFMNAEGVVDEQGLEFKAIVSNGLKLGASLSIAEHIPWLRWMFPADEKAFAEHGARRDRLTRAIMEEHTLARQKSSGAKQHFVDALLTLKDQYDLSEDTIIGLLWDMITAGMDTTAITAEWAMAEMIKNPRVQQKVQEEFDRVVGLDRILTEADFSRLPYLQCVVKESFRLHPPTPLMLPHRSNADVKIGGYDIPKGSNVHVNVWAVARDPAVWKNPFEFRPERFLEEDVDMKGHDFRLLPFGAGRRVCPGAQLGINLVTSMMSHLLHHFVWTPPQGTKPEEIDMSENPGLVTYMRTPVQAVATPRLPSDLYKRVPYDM
The test is described as follows: HPLC and LC-MS of caffeoyl quinate formed by plant microsomes. Conditions: 100 μM substrate; 0.2 mM NADPH; pH 7.0; 28 °C; microsomes from N. benthamiana expressing the enzyme.

Test [3] has as its target T2, CYP98A3. The test is described as follows: HPLC and LC-MS of caffeoyl shikimate formed by plant microsomes. The following applies: 100 μM substrate; 0.2 mM NADPH; pH 7.0; 28 °C; microsomes from N. benthamiana expressing the enzyme.
For test [4], the target named is T1, CYP98A22. Description: LC-MS of caffeoyl shikimate formed by plant microsomes. Conditions: 0.2 mM NADPH; 20 mM phosphate pH 7.0; 28 °C; 30 min; microsomes from N. benthamiana expressing the enzyme. From the text:
LC-MS of caffeoyl shikimate formed by plant microsomes on CYP98A22

SMILES strings stand for the structures.

T1 sequence (H9LJF9 entry or part of it): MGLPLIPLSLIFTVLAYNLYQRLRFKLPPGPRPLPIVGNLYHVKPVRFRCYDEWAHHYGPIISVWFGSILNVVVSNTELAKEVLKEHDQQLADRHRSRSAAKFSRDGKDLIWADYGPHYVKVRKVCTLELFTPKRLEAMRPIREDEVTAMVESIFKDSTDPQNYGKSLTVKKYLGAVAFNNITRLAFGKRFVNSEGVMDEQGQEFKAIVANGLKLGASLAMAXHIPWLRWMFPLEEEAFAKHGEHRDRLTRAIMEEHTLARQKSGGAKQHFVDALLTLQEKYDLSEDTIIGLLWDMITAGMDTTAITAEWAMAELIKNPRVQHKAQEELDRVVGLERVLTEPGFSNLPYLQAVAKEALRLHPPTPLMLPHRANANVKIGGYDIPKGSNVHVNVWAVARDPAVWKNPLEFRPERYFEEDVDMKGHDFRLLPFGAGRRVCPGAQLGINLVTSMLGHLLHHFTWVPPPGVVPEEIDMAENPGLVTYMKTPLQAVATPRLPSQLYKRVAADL

Usually Km stands for the concentration of substrate that gives half-maximal velocity. As for `O=C(/C=C/c1ccc(O)cc1)O[C@@H]1C[C@](O)(C(=O)O)C[C@@H](O)[C@H]1O` [p-coumaroyl quinate], the Michaelis-Menten constant (Km) in test [1] amounted to 7 ± 5 µM. In test [2], the “HPLC and LC-MS of caffeoyl quinate formed by plant microsomes” value is “both p-coumaroyl quinate and p-coumaroyl shikimate were hydroxylated to their caffeic counterparts”.
For the compound `O=C(/C=C/c1ccc(O)cc1)O[C@@H]1CC(C(=O)O)=C[C@@H](O)[C@H]1O` [p-coumaroyl shikimate], the “HPLC and LC-MS of caffeoyl shikimate formed by plant microsomes” value in test [3] was “both p-coumaroyl quinate and p-coumaroyl shikimate were hydroxylated to their caffeic counterparts”. Further, the Km in test [4] stood at 24 ± 7 µM.

Source of the values: PMC3493272, “CYP98A22, a phenolic ester 3’-hydroxylase specialized in the synthesis of chlorogenic acid, as a new tool for enhancing the furanocoumarin concentration in Ruta graveolens” (BMC Plant Biology, 2012).
